These results are taken from ChEMBL document CHEMBL6087416, “Discovery of novel fused-heterocycle-bearing diarypyrimidine derivatives as HIV-1 potent NNRTIs targeting tolerant region I for enhanced antiviral activity and resistance profile” (Eur J Med Chem, 2025).

SMILES strings stand for the structures. pEC50, pIC50: −log10 of the molar value.

Data set [1] in a line: in vitro. Particulars: human, MT4 cells.
Description: Selectivity index, ratio of CC50 for human MT4 cells to EC50 for wild type HIV-1 IIIB infected in human MT4 cells
Data set [2] has as its target Human immunodeficiency virus type 1 reverse transcriptase (Human immunodeficiency virus 1, UniProt Q72547). Briefly: Inhibition of wild type HIV-1 Reverse transcriptase incubated for 1 hrs by ELISA analysis.
A short description of data set [3]: Cytotoxicity against human MT4 cells assessed as reduction in cell viability measured after 5 days by MTT assay. As to conditions: time 5 day. The class given is toxicity, cell-based.
The subject of data set [4] is Human immunodeficiency virus 1. The class given is functional, organism-based. Particulars: Human immunodeficiency virus 1, RES056, MT4, 120 h.
Data set [5] relates to Human immunodeficiency virus 2. Briefly: Antiviral activity against HIV-2 ROD infected in human MT4 cells assessed as protection against virus-induced cytopathic effect incubated for 5 days by MTT assay. As to conditions: Human immunodeficiency virus 2, ROD, MT4, 120 h. The class given is functional, organism-based.
Data set [6] relates to Human immunodeficiency virus 1. Nature of the data set: microbe, parasite or virus in culture. As to conditions: Human immunodeficiency virus 1, IIIB, MT4, 120 h.
Description: Antiviral activity against wild type HIV-1 IIIB infected in human MT4 cells assessed as protection against virus-induced cytopathic effect incubated for 5 days by MTT assay
Data set [7] is described as follows: in vitro. Particulars: human, MT4 cells. The source holds these as a separate data set.
Description: Selectivity index, ratio of CC50 for human MT4 cells to EC50 for HIV-1 RES056 harboring RT K103N/Y181C mutant infected in human MT4 cells

On to `COP(=O)(OC)N1CCc2cc(Nc3nccc(Oc4c(C)cc(/C=C/C#N)cc4C)n3)ccc2C1`, for which the selectivity ratio in the data set “in vitro [1]” was 515. Also, in data set [2], the pIC50 was 6.77. The CC50 at 120 h in data set [3] was determined as 4180 nM. Besides, the pEC50 in data set [4] is less than 5.38; in data set [5], less than 5.38; in data set [6] it was 8.10.

As to `Cc1cc(/C=C/C#N)cc(C)c1Oc1ccnc(Nc2ccc3c(c2)CCN(S(C)(=O)=O)C3)n1`, in the data set “in vitro [1]”, the selectivity ratio came to 970. The molecule also gave a negative logarithm of the IC50 (pIC50) in data set [2] of 7.00. The CC50 at 120 h in data set [3] turned out to be 6630 nM. The pEC50 in data set [4] was less than 5.18; in data set [5] it was less than 5.18; in data set [6], 8.15.

Take `Cc1cc(/C=C/C#N)cc(C)c1Oc1ccnc(Nc2ccc3c(c2)OC(F)(F)O3)n1`: the selectivity ratio in “in vitro [1]” came out at 966; in the data set “in vitro [7]” it was 4. The pIC50 in data set [2] is 7.05. Also, in data set [3], the CC50 at 120 h amounted to 19200 nM. Also, the values for the pEC50 in data set [4], in data set [5] and in data set [6] were 5.27, less than 4.72 and 7.70, respectively.

As to `Cc1cc(/C=C/C#N)cc(C)c1Oc1ccnc(Nc2ccc3nc(C#N)sc3c2)n1`, in “in vitro [1]”, the selectivity ratio is 1330. The same molecule showed a pIC50 in data set [2] of 5.95. The CC50 at 120 h in data set [3] worked out at 81600 nM. The pEC50 is less than 4.09 in data set [4], less than 4.09 in data set [5] and 7.21 in data set [6].

As to `Cc1cc(/C=C/C#N)cc(C)c1Oc1ccnc(Nc2ccc3c(c2)CCN(CCS(C)(=O)=O)C3)n1`, the selectivity ratio in “in vitro [1]” was 256. The pIC50 in data set [2] was 6.77. The cytotoxic concentration (CC50) at 120 h in data set [3] worked out at 4770 nM. Besides, the negative-log EC50 (pEC50) is less than 5.32 in data set [4], less than 5.32 in data set [5] and 7.72 in data set [6].

With `Cc1nc2cc(Nc3nccc(Oc4c(C)cc(/C=C/C#N)cc4C)n3)ccc2s1`, in the data set “in vitro [1]”, the selectivity ratio is 431. Further, in data set [2], the pIC50 was 7.11. For the same molecule, the 50% cytotoxic concentration (CC50) at 120 h in data set [3] was determined as 5310 nM. Moreover, the pEC50 in data set [4] is less than 5.27; in data set [5], less than 5.27; in data set [6] it was 7.92.

Consider `Cc1nc2cc(Nc3nccc(Oc4c(C)cc(/C=C/C#N)cc4C)n3)ccc2o1`, for which the selectivity ratio in the data set “in vitro [1]” stood at 129. Also, the pIC50 in data set [2] was 7.28. In addition, in data set [3], the cytotoxic concentration (CC50) at 120 h was 1000 nM. Moreover, the pEC50 in data set [4] was less than 6.00; in data set [5], less than 6.00; in data set [6], 8.10.

For the molecule `Cc1cc(/C=C/C#N)cc(C)c1Oc1ccnc(Nc2ccc3c(c2)CCN(S(N)(=O)=O)C3)n1`, in “in vitro [1]”, the selectivity ratio is 748. In data set [2], this molecule had a negative-log IC50 (pIC50) of 7.26. In addition, the CC50 at 120 h in data set [3] stood at 6240 nM. Moreover, the negative logarithm of the EC50 (pEC50) is less than 5.20 in data set [4], less than 5.20 in data set [5] and 8.10 in data set [6].

`Cc1cc(/C=C/C#N)cc(C)c1Oc1ccnc(Nc2ccc3sccc3c2)n1`: in the data set “in vitro [1]”, the selectivity ratio came out at 221. The negative logarithm of the IC50 (pIC50) in data set [2] was 7.35. Also, in data set [3], the CC50 at 120 h worked out at 1710 nM. Further, the negative-log EC50 (pEC50) in data set [4] was less than 5.77; in data set [5], less than 5.77; in data set [6], 8.10.

Regarding `Cc1cc(/C=C/C#N)cc(C)c1Oc1ccnc(Nc2ccc3c(c2)OCCO3)n1`, the selectivity ratio in the data set “in vitro [1]” is 855. Moreover, the pIC50 in data set [2] is 7.30. Besides, in data set [3], the cytotoxic concentration (CC50) at 120 h stood at 12100 nM. Further, the pEC50 in data set [4] was less than 4.92; in data set [5], less than 4.92; in data set [6], 7.85.

In the case of `Cc1cc(/C=C/C#N)cc(C)c1Oc1ccnc(Nc2ccc3c(C(F)(F)F)cc(=O)oc3c2)n1`, in “in vitro [1]”, the selectivity ratio is 2420. In data set [2], this molecule showed a pIC50 of 6.64. The CC50 at 120 h in data set [3] was found to be 185000 nM. Besides, the negative logarithm of the EC50 (pEC50) in data set [4] was less than 3.73; in data set [5] it was less than 3.73; in data set [6], 7.12.

`Cc1cc(/C=C/C#N)cc(C)c1Oc1ccnc(Nc2ccc3c(c2)CN(CC#N)CC3)n1`: in “in vitro [1]”, the selectivity ratio was determined as 159. The molecule further gave a pIC50 in data set [2] of 6.60. Besides, the CC50 at 120 h in data set [3] was 5850 nM. In addition, the negative logarithm of the EC50 (pEC50) is less than 5.23 in data set [4], less than 5.23 in data set [5] and 7.43 in data set [6].

In the case of `Cc1cc(/C=C/C#N)cc(C)c1Oc1ccnc(Nc2ccc3c(c2)CN(S(C)(=O)=O)CC3)n1`, the selectivity ratio in the data set “in vitro [1]” came out at 791. In addition, in data set [2], the negative-log IC50 (pIC50) was 7.11. Also, in data set [3], the cytotoxic concentration (CC50) at 120 h amounted to 4950 nM. Further, the values for the negative-log EC50 (pEC50) in data set [4], in data set [5] and in data set [6] were less than 5.31, less than 5.31 and 8.22, respectively.

In the case of `Cc1cc(/C=C/C#N)cc(C)c1Oc1ccnc(Nc2ccc3c(c2)CN(S(N)(=O)=O)CC3)n1`, the results for the selectivity ratio in “in vitro [1]” and in the data set “in vitro [7]” were 743 and 2, respectively. In data set [2], this molecule showed a negative-log IC50 (pIC50) of 6.96. The half-maximal cytotoxic concentration (CC50) at 120 h in data set [3] was determined as 11600 nM. Also, the pEC50 in data set [4] was 5.19; in data set [5], less than 4.94; in data set [6], 7.80.

On to `Cc1cc(/C=C/C#N)cc(C)c1Oc1ccnc(Nc2ccc3c(C)cc(=O)oc3c2)n1`, for which the selectivity ratio in “in vitro [1]” is more than 2590. In data set [2], this molecule had a negative logarithm of the IC50 (pIC50) of 7.11. In addition, the CC50 at 120 h in data set [3] is more than 47100 nM. For the same molecule, the negative-log EC50 (pEC50) was less than 4.33 in data set [4], less than 4.33 in data set [5] and 7.74 in data set [6].

For the molecule `Cc1cc(/C=C/C#N)cc(C)c1Oc1ccnc(Nc2ccc3c(c2)CN(C)C3=O)n1`, in the data set “in vitro [1]”, the selectivity ratio amounted to 1290. This molecule showed a pIC50 in data set [2] of 6.20. In addition, the 50% cytotoxic concentration (CC50) at 120 h in data set [3] was 40400 nM. Further, the pEC50 in data set [4] was less than 4.39; in data set [5], less than 4.39; in data set [6], 7.51.

Consider `COP(=O)(OC)N1CCc2ccc(Nc3nccc(Oc4c(C)cc(/C=C/C#N)cc4C)n3)cc2C1`, for which the selectivity ratio in “in vitro [1]” amounted to 58. Further, the negative logarithm of the IC50 (pIC50) in data set [2] is 6.20. Also, in data set [3], the CC50 at 120 h turned out to be 7010 nM. Moreover, the negative logarithm of the EC50 (pEC50) in data set [4] was less than 5.15; in data set [5], less than 5.15; in data set [6], 6.92.

Consider `Cc1cc(/C=C/C#N)cc(C)c1Oc1ccnc(Nc2ccc3ncsc3c2)n1`, for which the selectivity ratio in “in vitro [1]” came to 5140; in “in vitro [7]” it was 16. The pIC50 in data set [2] was 7.15. The CC50 at 120 h in data set [3] came to 46000 nM. The figures for the pEC50 in data set [4], in data set [5] and in data set [6] were 5.54, less than 4.34 and 8.05, respectively.

On to `Cc1cc(/C=C/C#N)cc(C)c1Oc1ccnc(Nc2ccc3c(c2)C(=O)NC3)n1`, for which, in “in vitro [1]”, the selectivity ratio was 16000. For the same molecule, the pIC50 in data set [2] was 7.24. The CC50 at 120 h in data set [3] was 103000 nM. In addition, the pEC50 in data set [4] was less than 3.99; in data set [5] it was less than 3.99; in data set [6] it was 8.22.

With `Cc1cc(/C=C/C#N)cc(C)c1Oc1ccnc(Nc2ccc3oncc3c2)n1`, the selectivity ratio in the data set “in vitro [1]” came out at 2640; in the data set “in vitro [7]”, 4. For the same molecule, the pIC50 in data set [2] is 7.19. Besides, the half-maximal cytotoxic concentration (CC50) at 120 h in data set [3] was 17600 nM. Also, the figures for the negative-log EC50 (pEC50) in data set [4], in data set [5] and in data set [6] were 5.38, less than 4.75 and 8.15, respectively.

For `Cc1cc(/C=C/C#N)cc(C)c1Oc1ccnc(Nc2ccc3c(c2)CCN(C(=O)CS(C)(=O)=O)C3)n1`, in “in vitro [1]”, the selectivity ratio stood at 642. This molecule also gave a pIC50 in data set [2] of 6.92. The CC50 at 120 h in data set [3] came to 5950 nM. Besides, the pEC50 in data set [4] was less than 5.23; in data set [5], less than 5.23; in data set [6] it was 8.05.

`Cc1cc(/C=C/C#N)cc(C)c1Oc1ccnc(Nc2ccc3c(c2)CN(C(=O)CS(C)(=O)=O)CC3)n1`: the selectivity ratio stood at 524 in the data set “in vitro [1]” and 1 in the data set “in vitro [7]”. In data set [2], this molecule showed a pIC50 of 6.64. Further, the CC50 at 120 h in data set [3] came out at 8640 nM. The pEC50 in data set [4] was less than 5.06; in data set [5], less than 5.06; in data set [6] it was 7.77.
